Reference: PubChem BioAssay (NCI)
“And” between values parts separate entries of the source, which are not always exact repeats. Identical values can stand only once.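 Test compounds were applied to cells in 96-well plates for 48 hours at 5 doses. GI50: concentration for 50% inhibition of growth. TGI: total growth inhibition.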

Assays:
Experiment in all cases: inhibition of tumour cell growth, NCI panel, 48 h
HS 578T breast = system: HS 578T breast
NCI-H460 lung = system: NCI-H460 lung
MALME-3M melanoma = system: MALME-3M melanoma
DMS 114 small cell lung = system: DMS 114 small cell lung
A549 NSCLC = system: A549 NSCLC
DLD-1 colon = system: DLD-1 colon
U251 CNS = system: U251 CNS
SK-MEL-2 melanoma = system: SK-MEL-2 melanoma
MDA-MB-435 = system: MDA-MB-435
HT29 colon = system: HT29 colon

Row | Structure (SMILES) | TGI (HS 578T breast) [µM] | TGI (NCI-H460 lung) | TGI (MALME-3M melanoma) | TGI (DMS 114 small cell lung) | TGI (A549 NSCLC) | TGI (DLD-1 colon) | TGI (U251 CNS) | TGI (SK-MEL-2 melanoma) [µM] | TGI (MDA-MB-435) [µM] | GI50 (NCI-H460 lung) [µM] | GI50 (HT29 colon) [µM] | TGI (HT29 colon) | GI50 (MALME-3M melanoma) [µM] | GI50 (DMS 114 small cell lung) [µM] | GI50 (A549 NSCLC) [µM] | GI50 (DLD-1 colon) [µM] | GI50 (U251 CNS) [µM] | GI50 (SK-MEL-2 melanoma) [µM]
1 | COc1c(OC(C)=O)c(OC(C)=O)cc2c1-c1ccc(OC)c(=O)cc1C(NC(C)=O)CC2 (stereo not given) | > 100 | 13.1 µM | > 100 µM | 0.121 µM | > 100 µM | > 100 µM | 9.24 µM | 9.38 |  |  |  |  |  |  |  |  |  | 
2 | NC(=O)c1nnn(Cc2cc(Cl)c(C(=O)c3ccc(Cl)cc3)c(Cl)c2)c1N | > 64.3 | > 9.09 µM and 40.2 µM | > 9.09 µM and 44.1 µM | > 9.09 µM and 23.3 µM | > 9.09 µM and 37.1 µM | > 9.09 µM and 30.8 µM | > 9.09 µM and 38.1 µM | > 44 | > 40.7 | 1.04 | > 9.09 | > 9.09 µM and 42 µM | > 9.09 | 3.36 | > 9.09 | 12.7 | > 9.09 | > 9.09
3 | COc1ccc(C(=O)/C(=N/Nc2ccccc2)c2ccc(OC)cc2)cc1 |  | > 100 µM | > 100 µM | > 100 µM | > 100 µM | > 100 µM | > 100 µM | > 100 |  |  |  | > 100 µM |  |  |  |  |  | 
4 | C[N+](C)(C)CCC(=O)N1C/C(=C\c2ccccc2)C(=O)/C(=C/c2ccccc2)C1 | 21.2 | 22.4 µM | 30.4 µM | > 22.3 µM | 32.1 µM | 5.78 µM | 6 µM | 30.1 | 5.49 |  |  | 7.93 µM |  |  |  |  |  | 
5 | COC(=O)NNc1c([N+](=O)[O-])cnn(-c2ccccc2)c1=O | 6.98 | 15.9 µM | 5.51 µM | 13.8 µM | 28.2 µM | 3.91 µM | 4.59 µM | 11.5 | 3.03 |  |  | 3.81 µM |  |  |  |  |  | 
6 | [N-]=[N+]=Nc1ccccc1-[n+]1noc([O-])c1Br |  | > 100 µM | > 100 µM | > 100 µM | > 100 µM | > 100 µM | > 100 µM | > 100 |  |  |  | > 100 µM |  |  |  |  |  | 
7 | Cn1c(=O)nc2n(-c3ccc(F)cc3)c3ccccc3nc-2c1=O |  | 80.7 µM | 23 µM | 28.6 µM | 48.6 µM | 62.1 µM | 71.4 µM | 51.1 |  |  |  | 38.7 µM |  |  |  |  |  | 
